This note sets out measurements from US10913710B2, “Benzene disulfonamide for the treatment of cancer” (priority 2017, dated 2021).

pKd: −log10 of the molar value. Read-outs that look alike come from different tables or passages of the source.

This test deals with PDEδ (Homo sapiens (Human), UniProt O43924). Put plainly: Fluorescence polarization competition binding assay: displacement titration of labeled Atorvastatin probe for KD. On the procedure: Example D.2: Displacement Titrations of Labeled Atorvastatin-Probe for the Determination of KD Values
Displacement Titrations of Labeled Atorvastatin-Probe for the Determination of KD Values:
The purification was followed by size exclusion gel filtration on a Superdex 75 S26/60 column using buffer A (25 mM Tris-HCl, pH 7.5, 150 mM NaCl and 3 mM DTE).
Background: Polarisation of emitted light reports the rotation of a fluorescent probe.

[1] abbreviates: fluorescence polarization assay, activity classes, read-out: KD.

`O=S(=O)(c1ccc(S(=O)(=O)N(Cc2ccccn2)C2CCCO2)cc1)N(Cc1ccccn1)C1CCCO1` (centres unmarked) [Compound 1]: under setting [1], the pKd was 6.00 to 7.00.
Regarding `Nc1ccc(Br)c(CN(CC2CCNCC2)S(=O)(=O)c2ccc(S(=O)(=O)N(Cc3ccc(Cl)cc3)C3CCCC3)cc2)c1` [Compound 2, N1-(5-amino-2-bromobenzyl)-N4-(4-chlorobenzyl)-N4-cyclopentyl-N1-(piperidin-4-ylmethyl)benzene-1,4-disulfonamide], the pKd under setting [1] was 6.00 to 7.00.
Still for that read-out and setting: as for `CC(C)(C)OC(=O)N1CCC(CN(Cc2ccccc2)S(=O)(=O)c2ccc(S(=O)(=O)NC3CCCC3)cc2)CC1` [Compound 3], the figure is below 6.00.
Still for that read-out and setting: under `CC(C)(C)OC(=O)N1CCC(CN(Cc2ccccc2)S(=O)(=O)c2ccc(S(=O)(=O)N(Cc3cc(Br)cc(Br)c3)C3CCCC3)cc2)CC1` [Compound 4, tert-butyl 4-(((N-benzyl-4-(N-cyclopentyl-N-(3,5-dibromobenzyl)sulfamoyl)phenyl)sulfonamido)methyl)piperidine-1-carboxylate] stands 6.00 to 7.00; under `CNc1ncc(Br)c(CN(CC2CCCCC2)S(=O)(=O)c2ccc(S(=O)(=O)N(Cc3ccc(Cl)cc3)C3CCCC3)cc2)n1` [Compound 5, N1-((5-bromo-2-(methylamino)pyrimidin-4-yl)methyl)-N4-(4-chlorobenzyl)-N1-(cyclohexylmethyl)-N4-cyclopentylbenzene-1,4-disulfonamide], 7.00 to 7.52; under `CN1CCC(CN(Cc2ccccc2)S(=O)(=O)c2ccc(S(=O)(=O)N(Cc3ccc(Cl)cc3)C3CCCC3)cc2)CC1` [Compound 6, N1-benzyl-N4-(4-chlorobenzyl)-N4-cyclopentyl-N1-((1-methylpiperidin-4-yl)methyl)benzene-1,4-disulfonamide], 7.52 to 9.00.
`O=S(=O)(NCC1CCCCC1)c1ccc(S(=O)(=O)N(Cc2ccc(Cl)cc2)C2CCCC2)cc1` [Compound 8]: the pKd under setting [1] is 7.00 to 7.52.
`O=S(=O)(c1ccc(S(=O)(=O)N(Cc2ccc(Cl)cc2)C2CCCC2)cc1)N(Cc1ccccc1)CC1CCCCC1` [Compound 9, N1-benzyl-N4-(4-chlorobenzyl)-N1-(cyclohexylmethyl)-N4-cyclopentylbenzene-1,4-disulfonamide]: the pKd under setting [1] was 7.52 to 9.00.
Same read-out and setting: as for `O=S(=O)(c1ccc(S(=O)(=O)N(Cc2ccc(Cl)cc2)C2CCCC2)cc1)N(CCN1CCNCC1)Cc1ccccc1` [Compound 10, N1-benzyl-N4-(4-chlorobenzyl)-N4-cyclopentyl-N1-(2-(piperazin-1-yl)ethyl)benzene-1,4-disulfonamide], the figure is 7.52 to 9.00.
On the same count and under the same terms, under `O=S(=O)(c1ccc(S(=O)(=O)N(Cc2ccc(Cl)cc2)C2CCCC2)cc1)N(Cc1cnccn1)CC1CCNCC1` [Compound 11, N1-(4-chlorobenzyl)-N1-cyclopentyl-N4-(piperidin-4-ylmethyl)-N4-(pyrazin-2-ylmethyl)benzene-1,4-disulfonamide] stands 7.52 to 9.00.
Still for that read-out and setting: as for `O=S(=O)(c1ccc(S(=O)(=O)N(Cc2cnc(Cl)cn2)C2CCCC2)cc1)N(Cc1ccccc1)CC1CCNCC1` [Compound 12, N1-benzyl-N4-((5-chloropyrazin-2-yl)methyl)-N4-cyclopentyl-N1-(piperidin-4-ylmethyl)benzene-1,4-disulfonamide], the figure is 7.52 to 9.00.
In the case of `O=S(=O)(NCc1ccccc1)c1ccc(S(=O)(=O)N(Cc2ccc(Cl)cc2)C2CCCC2)cc1` [Compound 13], the pKd under setting [1] was 7.00 to 7.52.
Regarding `O=S(=O)(NCc1ccc(O)cc1)c1ccc(S(=O)(=O)N(Cc2ccc(Cl)cc2)C2CCCC2)cc1` [Compound 14], the pKd under setting [1] is 7.00 to 7.52.
Compound `CC(C)(C)[Si](C)(C)Oc1ccc(CNS(=O)(=O)c2ccc(S(=O)(=O)N(Cc3ccc(Cl)cc3)C3CCCC3)cc2)cc1` [Compound 15] had a pKd of 7.00 to 7.52.
Consider `O=S(=O)(c1ccc(S(=O)(=O)N(Cc2cccc(Br)c2)C2CCCC2)cc1)N(Cc1ccccc1)CC1CCNCC1` [Compound 17, N1-benzyl-N4-(3-bromobenzyl)-N4-cyclopentyl-N1-(piperidin-4-ylmethyl)benzene-1,4-disulfonamide], for which, under setting [1], the pKd was 7.00 to 7.52.
On the same count and under the same terms, under `O=S(=O)(c1ccc(S(=O)(=O)N(Cc2ccccc2)CC2CCNCC2)cc1)N(Cc1ccccc1)CC1CCNCC1` [Compound 18, N1,N4-dibenzyl-N1,N4-bis(piperidin-4-ylmethyl)benzene-1,4-disulfonamide] stands 6.00 to 7.00; under `CNc1nccc(CN(CC2CCCCC2)S(=O)(=O)c2ccc(S(=O)(=O)N(Cc3ccc(Cl)cc3)C3CCCC3)cc2)n1` [Compound 20, N1-(4-chlorobenzyl)-N4-(cyclohexylmethyl)-N1-cyclopentyl-N4-((2-(methylamino)pyrimidin-4-yl)methyl)benzene-1,4-disulfonamide], 7.00 to 7.52.
For the compound `COC(=O)c1ccc(CN(CC2CCNCC2)S(=O)(=O)c2ccc(S(=O)(=O)N(Cc3ccc(Cl)cc3)C3CCCC3)cc2)cc1N` [Compound 23, methyl 2-amino-4-(((4-(N-(4-chlorobenzyl)-N-cyclopentylsulfamoyl)-N-(piperidin-4-ylmethyl)phenyl)sulfonamido)methyl)benzoate], under setting [1], the pKd is 7.52 to 9.00.
In the case of `CC(C)(C)c1cc(Br)cc(CN(C2CCCC2)S(=O)(=O)c2ccc(S(=O)(=O)N(Cc3ccccc3)CC3CCNCC3)cc2)c1` [Compound 24, N1-benzyl-N4-(3-bromo-5-(tert-butyl)benzyl)-N4-cyclopentyl-N1-(piperidin-4-ylmethyl)benzene-1,4-disulfonamide], the pKd under setting [1] is 7.00 to 7.52.
Still for that read-out and setting: under `O=S(=O)(c1ccc(S(=O)(=O)N(Cc2cc(Br)cc(C(F)(F)F)c2)C2CCCC2)cc1)N(Cc1ccccc1)CC1CCNCC1` [Compound 25, N1-benzyl-N4-(3-bromo-5-(trifluoromethyl)benzyl)-N4-cyclopentyl-N1-(piperidin-4-ylmethyl)benzene-1,4-disulfonamide] stands 6.00 to 7.00.
The same measure, in the same setting: under `O=S(=O)(c1ccc(S(=O)(=O)N(Cc2ccc(Cl)cc2)C2CCCC2)cc1)N(Cc1ccccc1)CC1CCCNC1` (centres unmarked) [Compound 26, N1-benzyl-N4-(4-chlorobenzyl)-N4-cyclopentyl-N1-(piperidin-3-ylmethyl)benzene-1,4-disulfonamide] stands 7.52 to 9.00.
Same read-out and setting: as for `O=S(=O)(c1ccc(S(=O)(=O)N(Cc2ccc(Cl)cc2)C2CCCC2)cc1)N(Cc1cncnc1)CC1CCNCC1` [Compound 27, N1-(4-chlorobenzyl)-N1-cyclopentyl-N4-(piperidin-4-ylmethyl)-N4-(pyrimidin-5-ylmethyl)benzene-1,4-disulfonamide], the figure is 7.52 to 9.00; as for `CC(C)(C)[Si](C)(C)OCCN(CC1CCCCC1)S(=O)(=O)c1ccc(S(=O)(=O)N(Cc2ccc(Cl)cc2)C2CCCC2)cc1` [Compound 28], 6.00 to 7.00; as for `CC(C)(C)[Si](C)(C)OCCCN(CC1CCCCC1)S(=O)(=O)c1ccc(S(=O)(=O)N(Cc2ccc(Cl)cc2)C2CCCC2)cc1` [Compound 29], 6.00 to 7.00.
Turning to `CC(C)(C)[Si](C)(C)OCCCCN(CC1CCCCC1)S(=O)(=O)c1ccc(S(=O)(=O)N(Cc2ccc(Cl)cc2)C2CCCC2)cc1` [Compound 30], under setting [1], the pKd was 6.00 to 7.00.
For the compound `O=S(=O)(c1ccc(S(=O)(=O)N(Cc2ccc(Cl)cc2)C2CCCC2)cc1)N(CCO)CC1CCCCC1` [Compound 31], the negative-log Kd (pKd) under setting [1] was 7.00 to 7.52.
On the same count and under the same terms, under `O=S(=O)(c1ccc(S(=O)(=O)N(Cc2ccc(Cl)cc2)C2CCCC2)cc1)N(CCCO)CC1CCCCC1` [Compound 32] stands 7.00 to 7.52; under `O=S(=O)(c1ccc(S(=O)(=O)N(Cc2ccc(Cl)cc2)C2CCCC2)cc1)N(CCCCO)CC1CCCCC1` [Compound 33], 6.00 to 7.00; under `O=S(=O)(c1ccc(S(=O)(=O)N(Cc2ccc(Cl)cc2)C2CCCC2)cc1)N(Cc1ccccc1Br)CC1CCCCC1` [Compound 34, N1-(2-bromobenzyl)-N4-(4-chlorobenzyl)-N1-(cyclohexylmethyl)-N4-cyclopentylbenzene-1,4-disulfonamide], 7.00 to 7.52.
Same read-out and setting: under `O=S(=O)(c1ccc(S(=O)(=O)N(Cc2ccc(Cl)cc2)C2CCCC2)cc1)N(Cc1cccc(Br)c1)CC1CCCCC1` [Compound 35, N1-(3-bromobenzyl)-N4-(4-chlorobenzyl)-N1-(cyclohexylmethyl)-N4-cyclopentylbenzene-1,4-disulfonamide] stands 7.00 to 7.52; under `O=S(=O)(c1ccc(S(=O)(=O)N(Cc2ccc(Cl)cc2)C2CCCC2)cc1)N(CC1CCCCC1)c1ccccc1Br` [Compound 36, N1-(2-bromophenyl)-N4-(4-chlorobenzyl)-N1-(cyclohexylmethyl)-N4-cyclopentylbenzene-1,4-disulfonamide], 7.00 to 7.52; under `O=S(=O)(c1ccc(S(=O)(=O)N(Cc2ccc(Cl)cc2)C2CCCC2)cc1)N(CC1CCCCC1)c1cc(C(F)(F)F)ccc1Br` [Compound 37, N1-(2-bromo-5-(trifluoromethyl)phenyl)-N4-(4-chlorobenzyl)-N1-(cyclohexylmethyl)-N4-cyclopentylbenzene-1,4-disulfonamide], 7.00 to 7.52.
Turning to `O=CC1Cc2ccccc2N1S(=O)(=O)c1ccc(S(=O)(=O)N(Cc2ccc(Cl)cc2)C2CCCC2)cc1` (centres unmarked) [Compound 38], the pKd under setting [1] is 6.00 to 7.00.
On to `O=S(=O)(NCC1CCOCC1)c1ccc(S(=O)(=O)N(Cc2ccc(Cl)cc2)C2CCCC2)cc1` [Compound 39], for which the pKd under setting [1] is 7.00 to 7.52.
Turning to `CCOC(=O)c1ccccc1CN(CC1CCOCC1)S(=O)(=O)c1ccc(S(=O)(=O)N(Cc2ccc(Cl)cc2)C2CCCC2)cc1` [Compound 40, ethyl 2-(((4-(N-(4-chlorobenzyl)-N-cyclopentylsulfamoyl)-N-((tetrahydro-2H-pyran-4-yl)methyl)phenyl)sulfonamido)methyl)benzoate], the pKd under setting [1] is 6.00 to 7.00.
Still for that read-out and setting: as for `Cc1ccsc1N(Cc1ccccn1)S(=O)(=O)c1ccc(S(=O)(=O)N(Cc2ccccn2)c2sccc2C)cc1` [Compound 41], the figure is below 6.00.
On the same count and under the same terms, as for `Cc1ccc(CN(C2CCCC2)S(=O)(=O)c2ccc(S(=O)(=O)N(Cc3ccccn3)c3sccc3C)cc2)cc1` [Compound 42], the figure is 6.00 to 7.00; as for `Cc1ccc(CN(C2CCCC2)S(=O)(=O)c2ccc(S(=O)(=O)N(Cc3ccccn3)c3sccc3C)cc2)cc1Cl` [Compound 43], 6.00 to 7.00.

For orientation: pKd means the Kd on a negative log10 scale, so that one unit is a factor of ten.
